These results are taken from paper PMC4182091, “A Common Minimal Motif for the Ligands of HLA-B*27 Class I Molecules” (PLoS ONE, 2014).

Read-outs that look alike come from different tables or passages of the source. Ends that are not written are not given here.

Type in all cases: cell-based
One assay addresses T1, HLA-B*2705 (Homo sapiens, UniProt P01889, D138H/D201E/E176V/E204Q/G107R/H137Y/K202T/N104T/N87E/Q56L/Q94K/R106L/R155S/R180L/S101D/S121N/S48T/Y140D/Y33H/Y91C).
T1 construct: expressed in transfected cells; host or cells: RMA-S (TAP-deficient murine cell line)
As to the kind of experiment: HLA/peptide complex stability assay, RMA-S cells transfected with HLA-B*2705. Particulars: for fluorescence index, B*2705: peptide 200 µM.

For another assay, the target named is T2, HLA-B*2703 (Homo sapiens, UniProt P01889, D138H/D201E/E176V/E204Q/G107R/H137Y/K202T/N104T/N87E/Q56L/Q94K/R106L/R155S/R180L/S101D/S121N/S48T/Y140D/Y33H/Y83H/Y91C).
T2 construct: expressed in transfected cells; host or cells: RMA-S (TAP-deficient murine cell line)
The experiment in a line: HLA/peptide complex stability assay, RMA-S cells transfected with HLA-B*2703. Particulars: for fluorescence index, B*2703: peptide 200 µM.

For another assay, the target named is HLA-B*2704 (Homo sapiens, UniProt P01889, A235G/D138H/D201E/E204Q/G107R/H137Y/K202T/N104T/N87E/Q56L/Q94K/R106L/R155S/R180L/S121N/S48T/Y140D/Y33H/Y91C). The experiment in a line: HLA/peptide complex stability assay, RMA-S cells transfected with HLA-B*2704. Particulars: for fluorescence index, B*2704: peptide 200 µM.
The target in a further assay is T3, HLA-B*2706 (Homo sapiens, UniProt P01889, A235G/D201E/E204Q/G107R/H137Y/K202T/N104T/N87E/Q56L/Q94K/R106L/R155S/R180L/S121N/S48T/Y33H/Y91C).
T3 construct: expressed in transfected cells; host or cells: RMA-S (TAP-deficient murine cell line)
As to the kind of experiment: HLA/peptide complex stability assay, RMA-S cells transfected with HLA-B*2706. The conditions noted are these: SD; for fluorescence index, B*2706: peptide 200 µM.

The target of a further assay is T4, HLA-B*2701 (Homo sapiens, UniProt P01889, D138H/D201E/D98Y/E176V/E204Q/G107R/H137Y/K202T/L105A/N104T/N87E/Q56L/Q94K/R106L/R155S/R180L/S101N/S121N/S48T/Y140D/Y33H/Y91C).
T4 construct: expressed in transfected cells; host or cells: RMA-S (TAP-deficient murine cell line)
As to the kind of experiment: HLA/peptide complex stability assay, RMA-S cells transfected with HLA-B*2701. The conditions noted are these: for fluorescence index, B*2701: peptide 200 µM.

The target in the next assay is HLA-B*2702 (Homo sapiens, UniProt P01889, D138H/D201E/E176V/E204Q/G107R/H137Y/K202T/L105A/N104I/N87E/Q56L/Q94K/R106L/R155S/R180L/S101N/S121N/S48T/Y140D/Y33H/Y91C). As to the kind of experiment: HLA/peptide complex stability assay, RMA-S cells transfected with HLA-B*2702. The conditions noted are these: for fluorescence index, B*2702: peptide 200 µM.
Another assay addresses T5, HLA-B*2709 (Homo sapiens, UniProt P01889, D138H/D201E/E176V/E204Q/G107R/H137Y/K202T/N104T/N87E/Q56L/Q94K/R106L/R155S/R180L/S101D/S121N/S48T/Y140H/Y33H/Y91C).
T5 construct: expressed in transfected cells; host or cells: RMA-S (TAP-deficient murine cell line)
The experiment in a line: HLA/peptide complex stability assay, RMA-S cells transfected with HLA-B*2709. Particulars: SD; for fluorescence index, B*2709: peptide 200 µM.

Where [1] appears, read: relative affinity (EC50 class), B*2702.
The mark [2] stands for this setting: Table 1, transfected RMA-S cells, 2 h 26°C then 2 h 37°C, ME1 mAb, flow cytometry, ratio to control without peptide, mean ± S.D. of three to five independent experiments, SD.
Setting [3] is: Table 4, monosubstituted Ala analogs, transfected RMA-S cells, flow cytometry, mean ± S.D. of three to five independent experiments, SD.
The mark [4] stands for this setting: Table 1, transfected RMA-S cells, 2 h 26°C then 2 h 37°C, ME1 mAb, flow cytometry, ratio to control without peptide, mean ± S.D. of three to five independent experiments.
The mark [5] stands for this setting: Table 4, monosubstituted Ala analogs, transfected RMA-S cells, flow cytometry, mean ± S.D. of three to five independent experiments.

For orientation: EC50 means the concentration that produces a half-maximal response. Turning to “RRYPDAVYL [MV F 438-466, reference compound]”, the EC50 on HLA-B*2705 (Table 2, peptide concentration at 50% of maximum fluorescence, range 0.01–200 µM, transfected RMA-S cells, flow cytometry, mean ± S.D. of three to five independent experiments, - = no statistical difference in fluorescence index to negative control, SD, read-out: EC50, B*2705) was 3 ± 2 µM; on HLA-B*2703 (Table 2, peptide concentration at 50% of maximum fluorescence, range 0.01–200 µM, transfected RMA-S cells, flow cytometry, mean ± S.D. of three to five independent experiments, - = no statistical difference in fluorescence index to negative control, SD, read-out: EC50, B*2703), 4 ± 3 µM; on HLA-B*2704 (Table 2, peptide concentration at 50% of maximum fluorescence, range 0.01–200 µM, transfected RMA-S cells, flow cytometry, mean ± S.D. of three to five independent experiments, - = no statistical difference in fluorescence index to negative control, SD, read-out: EC50, B*2704), 18 ± 4 µM; on HLA-B*2706 (Table 2, peptide concentration at 50% of maximum fluorescence, range 0.01–200 µM, transfected RMA-S cells, flow cytometry, mean ± S.D. of three to five independent experiments, - = no statistical difference in fluorescence index to negative control, read-out: EC50, B*2706) it was 2 ± 1 µM; on HLA-B*2701 (Table 2, peptide concentration at 50% of maximum fluorescence, range 0.01–200 µM, transfected RMA-S cells, flow cytometry, mean ± S.D. of three to five independent experiments, - = no statistical difference in fluorescence index to negative control, SD, read-out: EC50, B*2701), 5 ± 2 µM; at HLA-B*2702 (Table 2, peptide concentration at 50% of maximum fluorescence, range 0.01–200 µM, transfected RMA-S cells, flow cytometry, mean ± S.D. of three to five independent experiments, - = no statistical difference in fluorescence index to negative control, SD, read-out: EC50, B*2702) it was 11 ± 4 µM. The EC50 on HLA-B*2709 (Table 2, peptide concentration at 50% of maximum fluorescence, range 0.01–200 µM, transfected RMA-S cells, flow cytometry, mean ± S.D. of three to five independent experiments, - = no statistical difference in fluorescence index to negative control, read-out: EC50, B*2709) came to 4 ± 1 µM.

Regarding SRSALLAQM [M 76-84], the “relative MHC class I affinity according to the EC50 value, in words (high, medium, low)” value on HLA-B*2705 is “high”. Further, the EC50 on HLA-B*2705 (EC50, B*2705, SD) is 5 ± 5 µM; at HLA-B*2703 (EC50, B*2703, SD), 6 ± 3 µM; on HLA-B*2704 (EC50, B*2704, SD), 15 ± 6 µM; at HLA-B*2706 (EC50, B*2706) it was 1 ± 1 µM; at HLA-B*2701 (EC50, B*2701, SD), 15 ± 11 µM; at HLA-B*2702 (EC50, B*2702), greater than 200 µM. Further, the EC50 is greater than 200 µM at HLA-B*2702 (setting [1]) and 6 ± 2 µM on HLA-B*2709 (EC50, B*2709).

Take “VAFTSHEHF [CMV pp65, reference compound]”: the “fluorescence index, B*2705” value on HLA-B*2705 (setting [2]) and at HLA-B*2705 (setting [3]) was 1.0±0.1 each time. The “fluorescence index, B*2703” value on HLA-B*2703 (setting [2]) and at HLA-B*2703 (setting [3]) was 1.0±0.1 in each case. For the same sequence, the “fluorescence index, B*2704” value on HLA-B*2704 (setting [2]) and on HLA-B*2704 (setting [3]) was 1.0±0.1 in each case. Besides, the “fluorescence index, B*2706” value at HLA-B*2706 (setting [4]) and on HLA-B*2706 (setting [5]) was 1.0±0.1 each time. Besides, the “fluorescence index, B*2701” value at HLA-B*2701 (setting [2]) and at HLA-B*2701 (setting [3]) was 1.0±0.1 each time. The “fluorescence index, B*2702” value at HLA-B*2702 (setting [2]) and on HLA-B*2702 (setting [3]) was 1.0±0.1 throughout. The “fluorescence index, B*2709” value on HLA-B*2709 (setting [4]) and on HLA-B*2709 (setting [5]) was 1.1±0.1 each time.

VRNKDLNTL [M 169-177]: at HLA-B*2705, the “relative MHC class I affinity according to the EC50 value, in words (high, medium, low)” value was “low affinity”. Further, the EC50 on HLA-B*2705 (read-out: EC50, B*2705, SD) was 82 ± 20 µM; at HLA-B*2705 (relative affinity (EC50 class), B*2705), 61 to 200 µM; on HLA-B*2703 (EC50, B*2703), greater than 200 µM; at HLA-B*2703 (relative affinity (EC50 class), B*2703), greater than 200 µM; at HLA-B*2704 (EC50, B*2704, SD), 56 ± 16 µM; at HLA-B*2704 (relative affinity (EC50 class), B*2704), 20 to 60 µM. Also, the EC50 at HLA-B*2706 (EC50, B*2706) is 3 ± 1 µM; at HLA-B*2701 (EC50, B*2701) it was greater than 200 µM; on HLA-B*2701 (relative affinity (EC50 class), B*2701), greater than 200 µM; at HLA-B*2702 (EC50, B*2702, SD), 94 ± 25 µM; on HLA-B*2702 (setting [1]), 61 to 200 µM; at HLA-B*2709 (EC50, B*2709), 19 ± 7 µM.
